Test results from patent US12679827B2, “Pyrimidine compounds and their pharmaceutical uses” (National Health Research Institutes, priority 2020, dated 2026).

Assays:
[1] = target: T1, human Aurora A (amino acids 123-401) (Homo sapiens, UniProt O14965); assay: Kinase-Glo Luminescent Kinase assay, in vitro inhibition of Aurora A kinase activity; format: biochemical; conditions: recombinant GST-tagged Aurora A, 5.0 μM ATP, 37° C., 120 minutes
T1 construct: human Aurora A (amino acids 123-401) was expressed in Sf9 insect cells; GST; made in house; host or cells: Sf9 insect cells
T1 sequence (O14965 123-401): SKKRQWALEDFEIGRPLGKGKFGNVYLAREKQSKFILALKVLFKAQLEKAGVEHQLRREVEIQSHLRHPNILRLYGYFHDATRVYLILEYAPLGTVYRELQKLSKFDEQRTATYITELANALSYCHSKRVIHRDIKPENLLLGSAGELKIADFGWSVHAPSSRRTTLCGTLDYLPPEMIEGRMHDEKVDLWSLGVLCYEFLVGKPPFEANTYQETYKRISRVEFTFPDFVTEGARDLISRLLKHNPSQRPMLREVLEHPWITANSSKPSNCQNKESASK
Experimental: Recombinant glutathione S-transferase (GST)-tagged N-terminal truncated human Aurora A (amino acids 123-401) was expressed in Sf9 insect cells and then purified by glutathione affinity chromatography to afford recombinant Aurora A. Recombinant Aurora A (150 ng) was reacted with each test compound (100 nM) in 50 μL of 50 mM Tris-HCl pH 7.4, 10 mM NaCl, 10 mM MgCl2, 0.01% bovine serum albumin, 5.0 μM ATP, 1 mM dithiothreitol, 15 μM tetra(-LRRASLG) peptide at 37° C. for 120 minutes. Then, to the reaction was added 50 μL of Kinase-Glo Plus Reagent. The resulting mixture was incubated at 25° C. for 20 minutes. A 70 μL aliquot of the mixture was transferred to a black microliter plate. Luminescence was measured using a Wallac Vector 1420 multilabel counter (PerkinElmer, USA).

NCI-H82 = assay: Small-cell-lung cancer cell proliferation inhibition assay (PrestoBlue), NCI-H82; format: cell-based; conditions: Homo sapiens, cMYC amplified SCLC cells, 72 hours
Experimental: (§1) Small cell lung cancer cells NCI-H82 (ATCC HTB-175, cMYC amplified), NCI-H446 (ATCC® HTB-171, cMYC amplified), and NCI-H69 (ATCC® HTB-119, MYCN amplified) were seeded at the density of 5000-10000 cells per well in 96-well plates. After 24 hours, the cancer cells were treated with each compound at various concentrations (0-10 μM) and then incubated for another 72 hours. IC50 values were computed based on duplicated 8-point titration.

NCI-H446 = assay: Small-cell-lung cancer cell proliferation inhibition assay (PrestoBlue), NCI-H446; format: cell-based; conditions: Homo sapiens, cMYC amplified SCLC cells, 72 hours
Experimental: as §1

IC50 [1] [nM]	IC50 (NCI-H82) [nM]	IC50 (NCI-H446) [nM]	SMILES
< 100			Cc1cc(Nc2cc(C)[nH]n2)nc(N(C)C2CCN(Cc3cccc(Cl)c3F)CC2)n1 [Compound 111]
< 100			Cc1cc(Nc2cc(C)[nH]n2)nc(NC2CCN(C(=O)c3cccc(F)c3F)CC2)n1 [Compound 114]
	< 1000	< 1000	COCCN(C)c1cc(Nc2cc(C)[nH]n2)nc(NC2CCN(C(=O)c3cccc(Cl)c3F)CC2)n1 [Compound 98]
< 100			Cc1cc(Nc2ccnc(NC3CCN(Cc4cccc(Cl)c4F)CC3)n2)n[nH]1 [Compound 110]
< 100			Cc1cc(Nc2cc(C)[nH]n2)nc(NC2CCN(C(=O)c3cccc(Cl)c3F)CC2)n1 [Compound 120]
	< 1000	< 1000	CCN1CCN(c2cc(Nc3cc(C)nn3C(=O)C(C)C)nc(NC3CCN(C(=O)c4cccc(Cl)c4F)CC3)n2)CC1 [Compound 124]
< 100	< 1000	< 1000	Cc1cc(Nc2cc(N(C)CCN(C)C)nc(NC3CCN(C(=O)c4cccc(Cl)c4F)CC3)n2)n[nH]1 [Compound 95]
< 100			Cc1cc(Nc2nccs2)nc(NC2CCN(Cc3cccc(Cl)c3F)CC2)n1 [Compound 116]
< 100			CCN1CCN(c2cc(Nc3cc(C)[nH]n3)nc(N(CC)C3CCN(C(=O)c4cccc(Cl)c4F)CC3)n2)CC1 [Compound 109]
< 100			Cc1cc(Nc2cc(C)[nH]n2)nc(NC2CCN(C(=O)c3cccc(Cl)c3Cl)CC2)n1 [Compound 121]
	< 1000	< 1000	CCCC(=O)n1nc(C)cc1Nc1cc(N2CCN(CC)CC2)nc(NC2CCN(C(=O)c3cccc(Cl)c3F)CC2)n1 [Compound 125]
< 100			Cc1cc(Nc2cc(C)[nH]n2)nc(NC2CCN(Cc3cccc(Cl)c3F)CC2)n1 [Compound 119]
< 100			Cc1cc(Nc2ccnc(NC3CCN(C(=O)c4cccc(F)c4F)CC3)n2)n[nH]1 [Compound 113]
< 100			Cc1cc(Nc2ccnc(NC3CCN(C(=O)c4cccc(Cl)c4Cl)CC3)n2)n[nH]1 [Compound 118]
< 100			Cc1cc(Nc2nccs2)nc(N(C)C2CCN(Cc3cccc(Cl)c3F)CC2)n1 [Compound 115]

More lines, now with the values behind:

SMILES	IC50 [1] [nM]	IC50 (NCI-H82) [nM]	IC50 (NCI-H446) [nM]
CCN1CCN(c2cc(Nc3cc(C)[nH]n3)nc(NC3CCN(C(=O)c4cccc(Cl)c4F)C3)n2)CC1 (centres unmarked) [Compound 58]	< 100		
Cc1cc(Nc2cc(N(C)CCN(C)C)nc(N[C@H]3CCN(C(=O)c4cccc(Cl)c4F)C3)n2)n[nH]1 [Compound 27]	< 100	< 1000	< 1000
CCN1CCN(c2cc(Nc3cc(C)[nH]n3)nc(N[C@H]3CCN(C(=O)c4cc(F)c(Cl)cc4F)C3)n2)CC1 [Compound 43]	< 100	< 1000	< 1000
Cc1cc(Nc2cc(N3CC[C@@H](N(C)C)C3)nc(N[C@H]3CCN(C(=O)c4cccc(Cl)c4F)C3)n2)n[nH]1 [Compound 20]	< 100		
Cc1cc(Nc2cc(N3CC(N(C)C)C3)nc(NC3CCN(C(=O)c4cccc(Cl)c4F)CC3)n2)n[nH]1 [Compound 89]	< 100	< 1000	< 1000
Cc1cc(Nc2cc(N3CCN(C)CC3)nc(N[C@H]3CCN(C(=O)c4ccc(Cl)cc4F)C3)n2)n[nH]1 [Compound 36]	< 100	< 1000	< 1000
CCN1CCN(c2cc(Nc3cc(C)[nH]n3)nc(N[C@H]3CCN(C(=O)c4ccc(Cl)c(C(F)(F)F)c4)C3)n2)CC1 [Compound 49]	< 100	< 1000	< 1000
Cc1cc(Nc2cc(N3CCN(C)CC3)nc(N[C@H]3CCN(C(=O)c4cccc(Cl)c4F)C3)n2)n[nH]1 [Compound 35]	< 100	< 1000	< 1000
CCN1CCN(c2cc(Nc3cc(C)[nH]n3)nc(N[C@H]3CCN(C(=O)c4cccc(Cl)c4F)C3)n2)CC1 [Compound 38]	< 100	< 1000	< 1000
Cc1cc(Nc2cc(N3CC(N(C)C)C3)nc(N[C@H]3CCN(C(=O)c4cccc(Cl)c4F)C3)n2)n[nH]1 [Compound 25]	< 100	< 1000	< 1000
CCN1CCN(c2cc(Nc3cc(C)[nH]n3)nc(N[C@H]3CCN(C(=O)c4c(F)cc(Cl)cc4F)C3)n2)CC1 [Compound 47]	< 100	< 1000	< 1000
CCN1CCN(c2cc(Nc3cc(C)[nH]n3)nc(N[C@H]3CCN(C(=O)c4ccc(Cl)cc4Cl)C3)n2)CC1 [Compound 32]	< 100	< 1000	< 1000
Cc1cc(Nc2cc(N3CC(N(C)C)C3)nc(N[C@H]3CCN(C(=O)c4ccc(Cl)cc4F)C3)n2)n[nH]1 [Compound 8]	< 100	< 1000	< 1000
CCN1CCN(c2cc(Nc3cc(C)[nH]n3)nc(N[C@H]3CCN(C(=O)c4ccc(F)cc4F)C3)n2)CC1 [Compound 44]	< 100	< 1000	< 1000
Cc1cc(Nc2cc(N3CCNCC3)nc(N[C@H]3CCN(C(=O)c4cccc(Cl)c4F)C3)n2)n[nH]1 [Compound 26]	< 100	< 1000	< 1000
COC1CCN(c2cc(Nc3cc(C)[nH]n3)nc(N[C@H]3CCN(C(=O)c4cccc(Cl)c4F)C3)n2)CC1 [Compound 28]	< 100		
CCN1CCN(c2cc(Nc3cc(C)[nH]n3)nc(NC3CCN(Cc4cccc(Cl)c4F)CC3)n2)CC1 [Compound 88]	< 100	< 1000	< 1000

SMILES	IC50 [1] [nM]	IC50 (NCI-H82) [nM]	IC50 (NCI-H446) [nM]
Cc1cc(Nc2cc(N3CC[C@H](N(C)C)C3)nc(N[C@H]3CCN(C(=O)c4cccc(Cl)c4F)C3)n2)n[nH]1 [Compound 22]	< 100	< 1000	< 1000
CCN1CCN(c2cc(Nc3cc(C)[nH]n3)nc(N[C@H]3CCN(Cc4cccc(Cl)c4F)C3)n2)CC1 [Compound 31]	< 100	< 1000	< 1000
CCN1CCN(c2cc(Nc3cc(C)[nH]n3)nc(N[C@H]3CCN(C(=O)c4cccc(C(F)(F)F)c4F)C3)n2)CC1 [Compound 48]	< 100	< 1000	< 1000
CCN1CCN(c2cc(Nc3cc(C)[nH]n3)nc(N[C@H]3CCN(C(=O)c4ccc(Cl)cc4)C3)n2)CC1 [Compound 29]	< 100		
Cc1cc(Nc2cc(N3CCN(C)CC3)nc(N[C@H]3CCN(Cc4cccc(Cl)c4F)C3)n2)n[nH]1 [Compound 30]	< 100		
CCN1CCN(c2cc(Nc3cc(C)[nH]n3)nc(N[C@H]3CCN(C(=O)c4ccc(Cl)c(C)c4)C3)n2)CC1 [Compound 33]	< 100		
COC[C@@H]1CCCN1c1cc(Nc2cc(C)[nH]n2)nc(N[C@H]2CCN(C(=O)c3cccc(Cl)c3F)C2)n1 [Compound 23]	< 100		
CCN1CCN(c2cc(Nc3cc(C)[nH]n3)nc(N[C@H]3CCN(C(=O)c4ccc(Cl)c(F)c4)C3)n2)CC1 [Compound 39]	< 100	< 1000	< 1000
COC[C@H]1CCCN1c1cc(Nc2cc(C)[nH]n2)nc(N[C@H]2CCN(C(=O)c3cccc(Cl)c3F)C2)n1 [Compound 24]	< 100		
Cc1cc(Nc2cc(N3CC[C@@H](N(C)C)C3)nc(N[C@H]3CCN(C(=O)c4ccc(Cl)cc4F)C3)n2)n[nH]1 [Compound 18]		< 1000	< 1000
CCN1CCN(c2cc(Nc3cc(C)[nH]n3)nc(N[C@H]3CCN(S(=O)(=O)c4ccc(Cl)cc4Cl)C3)n2)CC1 [Compound 63]	< 100	< 1000	< 1000
CCN1CCN(c2cc(Nc3cc(C)[nH]n3)nc(N[C@H]3CCN(S(=O)(=O)c4cccc(Cl)c4F)C3)n2)CC1 [Compound 65]	< 100	< 1000	< 1000
CCN1CCN(c2cc(Nc3cc(C)[nH]n3)nc(N[C@H]3CCN(C(=O)c4ccc(Cl)c(F)c4F)C3)n2)CC1 [Compound 40]	< 100	< 1000	< 1000
COC1CN(c2cc(Nc3cc(C)[nH]n3)nc(N[C@H]3CCN(C(=O)c4ccc(Cl)cc4F)C3)n2)C1 [Compound 19]	< 100	< 1000	< 1000
CCN1CCN(c2cc(Nc3cc(C)[nH]n3)nc(N[C@H]3CCN(C(=O)c4ccc(Cl)cc4C)C3)n2)CC1 [Compound 34]	< 100		
CCN1CCN(c2cc(Nc3cc(C)nn3C(C)=O)nc(N[C@H]3CCN(C(=O)c4ccc(Cl)cc4F)C3)n2)CC1 [Compound 70]		< 1000	< 1000
CCOC(=O)c1cnc(Nc2cc(N3CCN(C)CC3)nc(N[C@H]3CCN(C(=O)c4ccc(Cl)cc4F)C3)n2)s1 [Compound 2]	< 100	< 1000	
